This note sets out measurements from patent publication US8728754B1, “Use of proteins isolated from Pseudomonas to control molluscs” (priority 2013, dated 2014).

One data set deals with CL145A (ATCC 55799). As to the kind of experiment: Antibiotic resistance profile (antibiotic discs on Mueller-Hinton Agar). Conditions: for Suppresses growth of CL145A: 25° C., 72 hours; for CL145A resistant or sensitive to the antibiotic: antibiotic disc, 72 hours incubation.
Another data set relates to mussels. As to the kind of experiment: Mussel bioassay in scintillation vials. It is filed as in vivo. On the procedure:
Mussel bioassays were performed in twenty milliliter scintillation vials. Ten small mussels (approximately 1 cm long) were incubated in the mussel water (10 mL) for 24 hr first, then the mussel water (10 mL) was changed freshly before test cell lysis was added. Cell lysis or proteins (maximal 500 μL) was added into each vial. After 24 hr, the mussel water with cell lysis or proteins was changed with clean mussel water. Then, mussel water was changed every 24 hr with clean mussel water. Dead mussels were taken away every day and mussel mortality was calculated by number of dead mussel divided by the number of total mussels.

Description for CL145A (ATCC 55799): One glycerol stock vial of CL145A was equally distributed onto Mueller-Hinton Agar plates (100 μl per plate) and spread on the plate using a sterile cell spreader. Antibiotic discs were then placed onto the plates along with a blank sterile disc. Plates were incubated at 25° C. in the dark for 72 hours.

Regarding `CC1(C)S[C@@H]2[C@H](NC(=O)[C@H](N)c3ccccc3)C(=O)N2[C@H]1C(=O)O` [Ampicillin], the “Suppresses growth of CL145A” value with CL145A (ATCC 55799) (10 μg disc) was “No”. The “CL145A resistant or sensitive to the antibiotic” value (“CL145A resistant or sensitive” below) in the data set on CL145A (ATCC 55799) was “resistant”.
In the case of `CO/N=C(\C(=O)N[C@@H]1C(=O)N2C(C(=O)O)=C(COC(N)=O)CS[C@H]12)c1ccco1` [Cefuroxime], the “Suppresses growth of CL145A” value in the data set with CL145A (ATCC 55799) (30 μg disc) is “No”. Besides, in the data set with CL145A (ATCC 55799), the “CL145A resistant or sensitive” value is recorded as “resistant”.
For the compound `O=C(N[C@H](CO)[C@H](O)c1ccc([N+](=O)[O-])cc1)C(Cl)Cl` [Chloramphenicol], in the data set with CL145A (ATCC 55799) (30 μg disc), the “Suppresses growth of CL145A” value is given as “No”. In addition, in the data set on CL145A (ATCC 55799), the “CL145A resistant or sensitive” value is recorded as “resistant”.
Turning to `CC[C@H]1OC(=O)[C@H](C)[C@@H](O[C@H]2C[C@@](C)(OC)[C@@H](O)[C@H](C)O2)[C@H](C)[C@@H](O[C@@H]2O[C@H](C)C[C@H](N(C)C)[C@H]2O)[C@](C)(O)C[C@@H](C)C(=O)[C@H](C)[C@@H](O)[C@]1(C)O` [Erythromycin], the “Suppresses growth of CL145A” value with CL145A (ATCC 55799) (15 μg disc) is listed as “No”. For the same compound, the “CL145A resistant or sensitive” value with CL145A (ATCC 55799) is listed as “resistant”.
Regarding `CCN1CCN(C(=O)N[C@@H](C(=O)N[C@@H]2C(=O)N3[C@@H]2SC(C)(C)[C@@H]3C(=O)O)c2ccccc2)C(=O)C1=O` [Piperacillin], the “Suppresses growth of CL145A” value in the data set with CL145A (ATCC 55799) (100 μg disc) is given as “Yes”. In the data set with CL145A (ATCC 55799), the “CL145A resistant or sensitive” value was “sensitive”.
`[H]/N=C(/N)N[C@H]1[C@H](O)[C@@H](O)[C@H](O[C@@H]2O[C@@H](C)[C@](O)(C=O)[C@H]2O[C@@H]2O[C@@H](CO)[C@H](O)[C@@H](O)[C@@H]2NC)[C@@H](N/C(N)=N\[H])[C@@H]1O` [Streptomycin]: the “Suppresses growth of CL145A” value in the data set with CL145A (ATCC 55799) (10 μg disc) is given as “No”. In addition, the “CL145A resistant or sensitive” value in the data set with CL145A (ATCC 55799) was “resistant”.
As for Gentamicin, the “Suppresses growth of CL145A” value in the data set on CL145A (ATCC 55799) (10 μg disc) is reported as “Yes”. Besides, the “CL145A resistant or sensitive” value in the data set on CL145A (ATCC 55799) is listed as “sensitive”.
The corresponding values for Penicillin are “No” and “resistant”.
Sulphamethoxazole-Trimethoprim: the “Suppresses growth of CL145A” value in the data set on CL145A (ATCC 55799) (23.75/25 μg disc) is reported as “Yes”. Also, in the data set with CL145A (ATCC 55799), the “CL145A resistant or sensitive” value was “sensitive”.
In the case of “fumarate hydratase Class II (or fumarase) [Protein B]”, the “Mussel mortality at 7th day” value in the data set with mussels (4 ppm, 7th day) stood at 60%. Further, the “Activity in mussel bioassay of proteins and fractions dosed after gel analysis” value in the data set on mussels (in vivo) was “active”.
